# Laboratory results taken from patent US20110009362A1, “SOLUBILITY-ENHANCED FORMS OF APREPITANT AND PHARMACEUTICAL COMPOSITIONS THEREOF” (DR. REDDY'S LABORATORIES LTD., priority 2008, published 2011).
# Key:
# [1] = cited from earlier work
# [2] = Saturation solubility of aprepitant forms in water and aqueous HPβCD solutions; assay type: physicochemical; conditions: water, thermodynamic from solid, 1A: pH 7.0
# Description: Crystalline Form I of aprepitant, amorphous aprepitant, or aprepitant coprecipitate was added to water and to aqueous HPβCD solutions of different concentrations, with stirring until the saturation solubility was reached. […] 1B—pH adjusted to 1.2 using hydrochloric acid. 1C—pH adjusted to 11 with 0.3% sodium bicarbonate solution. Complexes with HPβCD are prepared by adding aprepitant to aqueous solutions of HPβCD and sonicating the solutions to dissolve aprepitant, until saturation is attained.
# [3] = Particle size analysis, Malvern Mastersizer; assay type: physicochemical
# Text: The particle size distribution of a material is generally described in terms of D10, D50, D90, and D[4,3], used routinely to describe the particle sizes or size distributions. It is expressed as volume or weight or surface percentages. Dx as used herein is defined as the size of particles where x percent of the particles have sizes less than the value given. D[4,3] is the volume mean diameter of the particles. D90 for example means that 90% of the particles are below the specified particle size. Particle sizes or particle size distributions of the pharmaceutical compositions of aprepitant of the present invention are determined using any techniques that are known to the person skilled in the art including but not limited to sieve analysis, size analysis by laser light scattering such as using a Malvern particle size analyzer (Malvern Instruments Ltd., Malvern, Worcestershire, United Kingdom) and the like. Pharmaceutical compositions of aprepitant of the present invention are generally fine, uniform and free of agglomerates.
# As used herein, the term “mean particle size” refers to the distributions of aprepitant particles, including aprepitant co-precipitate particles, wherein about 50 percent of all particles measured have a particle size less than the defined mean particle size value and about 50 percent of all measurable particles measured have a particle size greater than the defined mean particle size value; this can be identified by the term “D50.” Similarly, a particle size distribution where 90 percent of the particles have sizes less than a specified size is referred to as “D90” and a distribution where 10 percent of particles have sizes less than a specified size is referred to as “D10.”
# Particle size analysis was carried out using a Malvern Mastersizer.
solubility [2],Particle Size D10 ([3]; D10),Particle Size D50 ([3]; D50),Particle Size D90 ([3]; D90),SMILES,solubility in acetonitrile ([1]; acetonitrile),solubility in ethanol ([1]; ethanol),solubility in isopropyl alcohol ([1]; isopropyl alcohol),solubility in water ([1]; water)
,,,,"C[C@@H](O[C@H]1OCCN(Cc2n[nH]c(=O)[nH]2)[C@H]1c1ccc(F)cc1)c1cc(C(F)(F)F)cc(C(F)(F)F)c1 [Aprepitant, 5-[[(2R,3S)-2-[(1R)-1-[3,5-bis(trifluoromethyl)phenyl]ethoxy]-3-(4-fluorophenyl)-4-morpholinyl]methyl]-1,2-dihydro-3H-1,2,4-triazol-3-one]",slightly soluble,sparingly soluble,sparingly soluble,practically insoluble
0.5 µg/mL,17.1 μm,29.2 μm,52.0 μm,C[C@@H](O[C@H]1OCCN(Cc2n[nH]c(=O)[nH]2)[C@H]1c1ccc(F)cc1)c1cc(C(F)(F)F)cc(C(F)(F)F)c1 [Crystalline aprepitant Form I],,,,
